The subject of assay [1] is Enterococcus faecalis (ATCC 29212). Kind of assay: Agar Well Diffusion Assay (K-B disks). Type of assay: cell-based. Particulars: EFAECL; K-B disk, 25 uL, dilutions in DMSO; width of zone; one value per test date. Here is the method:
An Agar Well Diffusion Assay pilot evaluation of AB-101 BRM was conducted to seek an initial signal of the activity of AB-101 BRM against various bacteria. AB-101 BRM was tested against the following bacterial species: • Streptococcus pneumoniae (ATCC 49619) (SPNEU) Gram (+) • Streptococcus pyogenes (clinical isolate) (GABHS) Gram (+) • Enterococcus faecalis (ATCC 29212) (EFAECL) Gram (+) • Coagulase-negative Staphylococcus (clinical isolate) (CNS) Gram (+) • Escherichia coli (ATCC 25922) (EC) Gram (−) • Pseudomonas aeruginosa (ATCC 27853) (PAER) Gram (−) • Klebsiella pneumoniae (ATCC 700603) (KPNEU) Gram (−) • Staphylococcus aureus (ATCC […]) (SAUR) Gram (+) • Methicillin-resistant Staphylococcus aureus (ATCC 49476) (MRSA) Gram (+)
Isolates were subcultured the day before the Agar Well Diffusion Assay was performed. On the day of the assay, a bacterial suspension (0.08-0.12 MacFarland units) of each bacteria isolate was made in Trypticase Soy Broth (TSB), and these suspensions were used to plate a lawn of bacterial organisms on Mueller-Hinton agar or Mueller-Hinton sheep's blood agar. A control antibiotic Kirby-Bauer (K-B) disk plus K-B disks containing 25 uL of AB-101 dilutions were placed on the plates, and the plates were incubated overnight. The next day, the width of the zone of growth inhibition surrounding each K-B disk was recorded (in mm). […]

Assay [2] concerns MSSA and MRSA strains (Mupirocin-resistant and Mupirocin-susceptible). Description: In vitro MIC, panel of MSSA and MRSA strains. To be noted: for MIC: Staphylococcus aureus. Type of assay: cell-based, Staphylococcus aureus. From the text:
(§1) Measures included the minimum inhibitory concentration (MIC) which is the lowest concentration of AB-101 that prevents visible growth of the bacterium or pathogen, and minimum bactericidal concentration (MBC) which is the lowest concentration of an antibacterial agent required to kill a bacterium.

For assay [3] the test system is unchanged. Kind of assay: In vitro MBC, panel of MSSA and MRSA strains. Type of assay: cell-based, Staphylococcus aureus. To be noted: purified extract of taspine.
Text: as §1

[4] abbreviates: ATCC 29213 / MRSA / MSSA, strain ATCC 29213, QC control.

In brackets after ≈: the same amount, converted by molar mass.

`CC1(C)S[C@@H]2[C@H](NC(=O)[C@H](N)c3ccccc3)C(=O)N2[C@H]1C(=O)O` [AMP, Ampicillin]: in assay [1], the “Zone of Inhibition (MM)” value is “AMP 8 MM”.

In the case of `C/C(=C\C(=O)OCCCCCCCCC(=O)O)C[C@@H]1OC[C@H](C[C@@H]2O[C@H]2[C@@H](C)[C@H](C)O)[C@@H](O)[C@H]1O` [Mupirocin], the MIC in assay [2] (setting [4]) is 0.25 to 0.5 µg/mL (≈ 0.499 to 0.999 µM); in assay [2] (strain 1674606, MupirocinR, MSSA) it was greater than 256 µg/mL; in assay [2] (strain 1674607, MupirocinR, MRSA), greater than 256 µg/mL; in assay [2] (strain CDC 227, MupirocinS, MRSA) it was 0.25 to 0.5 µg/mL (≈ 0.499 to 0.999 µM); in assay [2] (strain CDC 462, MupirocinS, MSSA), no more than 0.25 µg/mL; in assay [2] (strain CDC 464, MupirocinS, MSSA), no more than 0.25 µg/mL. Besides, the MIC in assay [2] (strain CDC 484, MupirocinS, MSSA) was no more than 0.25 µg/mL; in assay [2] (strain CDC 485, MupirocinS, MSSA), no more than 0.25 µg/mL.

For the molecule `COc1cccc(OC)c1C(=O)N[C@@H]1C(=O)N2[C@@H]1SC(C)(C)[C@@H]2C(=O)O` [Methicillin], the MIC in assay [2] (setting [4]) fell in the range of 1 to 2 µg/mL (≈ 2.63 to 5.26 µM).

As to Gentamicin [GM], the “Zone of Inhibition (MM)” value in assay [1] is recorded as “GM 5 MM”.

Take `COc1ccc2c(=O)oc3c(OC)cc(CCN(C)C)c4c(=O)oc1c2c34` [Taspine, taspine]: in assay [2] (highest concentration tested 50% relative to AB-101 = 10 μg/mL), the “activity against MSSA and MRSA (MIC)” value is given as “does not have activity”. The “activity against MSSA and MRSA (MBC)” value in assay [3] is “does not have activity”.
